Article PMC3408453, “A Foldamer-Dendrimer Conjugate Neutralizes Synaptotoxic β-Amyloid Oligomers” (PLoS ONE, 2012)
Several values for one entry are separate records, joined by “and”; a condition that tells them apart may be missing. Equal entries are not always repeated.

Legend:
[1] = target: T1, oligomeric Aβ (Homo sapiens, UniProt P05067); assay: ThT binding experiment on oligomeric Aβ; settings: oligomeric Aβ + ligand 1∶1, up to 24 h
T1 construct: a depsipeptide derivative of Aβ(1–42) was utilized; made in house; host or cells: chemical peptide synthesis (no expression host)
Text: The data on 7 were in agreement with its largely helical structure, also found via NMR. […] This was in accord with the NMR results obtained for the recognition segment 1. The secondary structure was probed also with ThT binding experiments (Figure 9B). Pure Aβ oligomers bound ThT at a certain level. This was in accord with the staining with antibody OC; both are capable of recognizing the fibrillar (or protofibrillar) oligomers. […] The latter process is similar to affinity precipitation.
(A) Observed ellipticities in ECD for 36 μM Aβ oligomer (thick black), 9 μM 7 (thin black), and 36 μM Aβ +9 μM 7 (thick dashed). The hypothetical sum of the ECD curves of the pure samples (thin dashed). (B) ThT binding experiment carried out on 36 µM oligomeric Aβ (white bars) and on 36 µM oligomeric Aβ +7 1∶1 mixtures. The relative fluorescence values were monitored up to 24 h.
ThT (Sigma-Aldrich) was dissolved in 50 mM NaH2PO4/Na2HPO4 buffer (pH = 7.0) to a final concentration of 25 μM. […] Two identical 50 μM Aβ oligomer samples were prepared and one of them was mixed with 7 to a final concentration of 50 μM, and the ThT signal intensity was monitored up to further 24 h. […] ThT fluorescence was measured on a plate reader at […] and λem = 480 nm. Data mean values and S.D. were calculated from three parallel measurements.

[2] = target: T2, Aβ oligomers (Homo sapiens, UniProt P05067); assay: Ligand-induced precipitation during ITC titration, followed by DLS; settings: 72 μM Aβ oligomer
T2 construct: a depsipeptide derivative of Aβ(1–42) was utilized; made in house; host or cells: chemical peptide synthesis (no expression host)
Protocol: (§1) Binding of 7 to the Aβ oligomers was monitored by means of isothermal titration calorimetry (ITC). […] The titrations were run at 288 K in order to improve the signal to noise ratio, and just above the precipitation limit as the ITC method is sensitive to the thermal noise caused by the stirring of large particles. […] These values strongly supported tight binding between the Aβ oligomer species and 7.
For DLS measurements, 500 µL Aβ(1–42) solution (c = 72 µM) was prepared in PBS, and placed in a low–volume sizing cell. Size distribution was measured at 25°C on a Malvern Zetasizer Nano ZS Instrument (Malvern Instruments Ltd. Worcestershire, UK) equipped with a He-Ne laser (633 nm) by means of Non-Invasive Back Scatter (NIBS®) technology, which involves detection of the scattered light at an angle of 173°. A titration routine was formulated consisting of 12 independent measurements with a 2-min delay after each. The calculated amount of 7 solution was added to the Aβ after every second measurement. During the titration, the molar quantity of 7 varied between 0–35 µM. For a single measurement, the correlation function and distribution of the apparent hydrodynamic diameter (dh) over the scattered intensity of the particles were determined on the basis of 14 scans. […]

[3] = target: T2, Aβ oligomers; assay: Isothermal titration calorimetry (ITC) with Aβ oligomers; assay type: binding; settings: 72 μM Aβ oligomer, 288 K
Protocol: as §1
Isothermal titrations were performed with a Microcal VP-ITC microcalorimeter. The binding experiments were performed in PBS pH 7.4. The buffer solution was degassed. The concentrations of the ligands and Aβ were corrected for the material content. In individual titrations, 10 μL of ligand was injected from the computer-controlled 300-μL microsyringe at intervals of 300 s into the Aβ oligomer solution dissolved in the same buffer as the ligand. The microsyringe stirring was set to 295 rpm. All measurements were made at 288 K. The Aβ concentrations in the cell were either 72 μM or 36 μM, and the concentrations of 7 were 175 μM and 222 μM respectively. The total ligand concentration was set in the syringe so that the titration stopped when the precipitation became excessive. Control experiments were performed by injecting the ligand into a cell containing buffer with no target, and the heats of dilution were subtracted from those measured in the presence of Aβ. Titrations were also performed with buffer in the syringe and Aβ oligomer sample in the cell to check for the heat response of Aβ dilution itself. The dilution heat of the Aβ oligomer samples was constant and negligible. Since the target is inherently inhomogeneous, and an a priori model of the binding events is not available,. the experimental data were fitted to the two independent site binding model by using a nonlinear least-squares procedure, with ΔHb, ΔHb', Ka, Ka' (association constants), N and N' (number of binding sites for monomer), as adjustable parameters. The exothermic peaks appearing after the fully precipitated phase was reached, were omitted from the regression.

## N=C(N)NCCC[C@@H](CC(=O)N[C@H]1CCCC[C@@H]1C(=O)N[C@H]1CCCC[C@@H]1C(=O)N[C@@H](CC(=O)O)CC(=O)N[C@H]1CCCC[C@@H]1C(=O)NCC(=O)NCC(=O)N[C@@H](CSC1CC(=O)N(CCC(=O)NCCNC(=O)CCN(CCC(=O)NCCNC(=O)CCN2C(=O)CC(SC[C@H](NC(=O)CNC(=O)CNC(=O)[C@H]3CCCC[C@@H]3NC(=O)C[C@H](CC(=O)O)NC(=O)[C@H]3CCCC[C@@H]3NC(=O)[C@H]3CCCC[C@@H]3NC(=O)C[C@H](CCCNC(=N)N)NC(=O)[C@H]3CCCC[C@@H]3N)C(N)=O)C2=O)CCN(CCC(=O)NCCNC(=O)CCN2C(=O)CC(SC[C@H](NC(=O)CNC(=O)CNC(=O)[C@H]3CCCC[C@@H]3NC(=O)C[C@H](CC(=O)O)NC(=O)[C@H]3CCCC[C@@H]3NC(=O)[C@H]3CCCC[C@@H]3NC(=O)C[C@H](CCCNC(=N)N)NC(=O)[C@H]3CCCC[C@@H]3N)C(N)=O)C2=O)CCC(=O)NCCNC(=O)CCN2C(=O)CC(SC[C@H](NC(=O)CNC(=O)CNC(=O)[C@H]3CCCC[C@@H]3NC(=O)C[C@H](CC(=O)O)NC(=O)[C@H]3CCCC[C@@H]3NC(=O)[C@H]3CCCC[C@@H]3NC(=O)C[C@H](CCCNC(=N)N)NC(=O)[C@H]3CCCC[C@@H]3N)C(N)=O)C2=O)C1=O)C(N)=O)NC(=O)[C@H]1CCCC[C@@H]1N (stereo partly drawn) [Compound 7]
[1]
  Effect on ThT binding of Aβ oligomers: no significant effect on the ThT binding
[2]
  Concentration-dependent precipitation of Aβ oligomers during titration (ITC/DLS): the precipitation started just before the equivalence point of the second stage
[3]
  N (ITC stoichiometry, number of binding sites for monomer; first or single stage): 0.041±0.00089 and 0.041
  N' (ITC stoichiometry, lower affinity interaction): 0.18±0.002 and 0.18
  ΔHb (ITC; first binding step for 7, single stage for 8): 7.24 ± 0.05 kcal/mol
  ΔHb' (ITC, lower affinity interaction): 2.58 ± 0.02 kcal/mol
